According to PubChem BioAssay (NCI):
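Where inhibition never reached the appropriate level, the endpoint shown equals the highest concentration tested. Otherwise, values were interpolated linearly from a five-concentration, 48-hour dose response in 96-well plates. GI50 is the concentration that inhibits growth by half. TGI: concentration producing complete growth inhibition.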

How the values were obtained:
Experiment in all cases: NCI tumour cell line growth inhibition, 48 h
T-47D breast = tested on: T-47D breast
SNB-19 CNS = tested on: SNB-19 CNS
TK-10 renal = tested on: TK-10 renal
A498 renal = tested on: A498 renal
HL-60(TB) leukemia = tested on: HL-60(TB) leukemia
SK-MEL-28 melanoma = tested on: SK-MEL-28 melanoma
SR leukemia = tested on: SR leukemia
UACC-257 melanoma = tested on: UACC-257 melanoma
SK-MEL-2 melanoma = tested on: SK-MEL-2 melanoma
RPMI-8226 leukemia = tested on: RPMI-8226 leukemia
UO-31 renal = tested on: UO-31 renal
RXF 393 renal = tested on: RXF 393 renal
HCC-2998 colon = tested on: HCC-2998 colon
COLO 205 colon = tested on: COLO 205 colon
SF-268 CNS = tested on: SF-268 CNS
ACHN renal = tested on: ACHN renal
OVCAR-5 ovarian = tested on: OVCAR-5 ovarian
LOX IMVI melanoma = tested on: LOX IMVI melanoma
NCI-H226 lung = tested on: NCI-H226 lung
NCI-H522 lung = tested on: NCI-H522 lung
IGROV1 ovarian = tested on: IGROV1 ovarian
NCI-H460 lung = tested on: NCI-H460 lung
MDA-MB-468 breast = tested on: MDA-MB-468 breast
M14 melanoma = tested on: M14 melanoma
SK-OV-3 ovarian = tested on: SK-OV-3 ovarian
HT29 colon = tested on: HT29 colon
CAKI-1 renal = tested on: CAKI-1 renal
HCT-116 colon = tested on: HCT-116 colon
UACC-62 melanoma = tested on: UACC-62 melanoma
MOLT-4 leukemia = tested on: MOLT-4 leukemia
DU-145 prostate = tested on: DU-145 prostate
SN12C renal = tested on: SN12C renal
MDA-MB-231 breast = tested on: MDA-MB-231 breast
PC-3 prostate = tested on: PC-3 prostate
SW-620 colon = tested on: SW-620 colon
MALME-3M melanoma = tested on: MALME-3M melanoma
BT-549 breast = tested on: BT-549 breast
CCRF-CEM leukemia = tested on: CCRF-CEM leukemia
SNB-75 CNS = tested on: SNB-75 CNS
SF-295 CNS = tested on: SF-295 CNS
HOP-92 NSCLC = tested on: HOP-92 NSCLC
SK-MEL-5 melanoma = tested on: SK-MEL-5 melanoma
OVCAR-8 ovarian = tested on: OVCAR-8 ovarian
K-562 leukemia = tested on: K-562 leukemia
U251 CNS = tested on: U251 CNS
786-0 renal = tested on: 786-0 renal
A549 NSCLC = tested on: A549 NSCLC
MDA-MB-435 = tested on: MDA-MB-435
NCI/ADR-RES ovarian = tested on: NCI/ADR-RES ovarian
HOP-62 NSCLC = tested on: HOP-62 NSCLC
MCF7 breast = tested on: MCF7 breast
KM12 colon = tested on: KM12 colon
OVCAR-3 ovarian = tested on: OVCAR-3 ovarian
NCI-H23 lung = tested on: NCI-H23 lung
OVCAR-4 ovarian = tested on: OVCAR-4 ovarian
HCT-15 colon = tested on: HCT-15 colon
EKVX NSCLC = tested on: EKVX NSCLC
HS 578T breast = tested on: HS 578T breast
SF-539 CNS = tested on: SF-539 CNS

For `C=C1CCC2C3(C)COC(c4cccc(F)c4)OC3CCC2(C)C1C/C=C1/C(=O)OCC1O` (stereo not drawn), the GI50 (T-47D breast) was 3.61 µM, the TGI (T-47D breast) was 16 µM and the GI50 (SNB-19 CNS) was 13.1 µM. It also gave a TGI (SNB-19 CNS) of 25.9 µM, a GI50 (TK-10 renal) of 14.8 µM and a TGI (TK-10 renal) of 28.2 µM. For the same molecule, the GI50 (A498 renal) was 14.1 µM, the TGI (A498 renal) was 27.7 µM and the GI50 (HL-60(TB) leukemia) was 1.98 µM. The TGI (HL-60(TB) leukemia) was 6.83 µM, the GI50 (SK-MEL-28 melanoma) was 5.58 µM and the TGI (SK-MEL-28 melanoma) was 18 µM. For the same molecule, the GI50 (SR leukemia) was 3.52 µM, the TGI (SR leukemia) was 17.7 µM and the GI50 (UACC-257 melanoma) was 5.51 µM. For the same molecule, the TGI (UACC-257 melanoma) was 19.7 µM, the GI50 (SK-MEL-2 melanoma) was 5.95 µM and the TGI (SK-MEL-2 melanoma) was 19.1 µM. The GI50 (RPMI-8226 leukemia) was 2.58 µM, the TGI (RPMI-8226 leukemia) was 6.78 µM and the GI50 (UO-31 renal) was 5.14 µM. It also gave a TGI (UO-31 renal) of 18.2 µM, a GI50 (RXF 393 renal) of 5.88 µM and a TGI (RXF 393 renal) of 19.6 µM. For the same molecule, the GI50 (HCC-2998 colon) was 8.09 µM, the TGI (HCC-2998 colon) was 20.9 µM and the GI50 (COLO 205 colon) was 4.09 µM. The TGI (COLO 205 colon) was 15.6 µM, the GI50 (SF-268 CNS) was 6 µM and the TGI (SF-268 CNS) was 19.8 µM. For the same molecule, the GI50 (ACHN renal) was 4.48 µM, the TGI (ACHN renal) was 15.8 µM and the GI50 (OVCAR-5 ovarian) was 4.04 µM. For the same molecule, the TGI (OVCAR-5 ovarian) was 15.9 µM, the GI50 (LOX IMVI melanoma) was 1.67 µM and the TGI (LOX IMVI melanoma) was 3.08 µM. For the same molecule, the GI50 (NCI-H226 lung) was 1.85 µM, the TGI (NCI-H226 lung) was 3.87 µM and the GI50 (NCI-H522 lung) was 1.71 µM. For the same molecule, the TGI (NCI-H522 lung) was 4 µM, the GI50 (IGROV1 ovarian) was 10.3 µM and the TGI (IGROV1 ovarian) was 23.2 µM. For the same molecule, the GI50 (NCI-H460 lung) was 4.03 µM, the TGI (NCI-H460 lung) was 18.6 µM and the GI50 (MDA-MB-468 breast) was 2.11 µM. It also gave a TGI (MDA-MB-468 breast) of 6.28 µM, a GI50 (M14 melanoma) of 6.93 µM and a TGI (M14 melanoma) of 21.3 µM. It also gave a GI50 (SK-OV-3 ovarian) of 16.1 µM, a TGI (SK-OV-3 ovarian) of 29.9 µM and a GI50 (HT29 colon) of 2.19 µM. For the same molecule, the TGI (HT29 colon) was 4.75 µM, the GI50 (CAKI-1 renal) was 7.43 µM and the TGI (CAKI-1 renal) was 20.2 µM. For the same molecule, the GI50 (HCT-116 colon) was 1.85 µM, the TGI (HCT-116 colon) was 3.62 µM and the GI50 (UACC-62 melanoma) was 4.68 µM. It also gave a TGI (UACC-62 melanoma) of 16.9 µM, a GI50 (MOLT-4 leukemia) of 3.24 µM and a TGI (MOLT-4 leukemia) of 12 µM. It also gave a GI50 (DU-145 prostate) of 6.21 µM, a TGI (DU-145 prostate) of 18.5 µM and a GI50 (SN12C renal) of 2.95 µM. The TGI (SN12C renal) was 9.4 µM, the GI50 (MDA-MB-231 breast) was 2.61 µM and the TGI (MDA-MB-231 breast) was 7.25 µM. For the same molecule, the GI50 (PC-3 prostate) was 3.3 µM, the TGI (PC-3 prostate) was 15.3 µM and the GI50 (SW-620 colon) was 1.48 µM. It also gave a TGI (SW-620 colon) of 3.26 µM, a GI50 (MALME-3M melanoma) of 13.2 µM and a TGI (MALME-3M melanoma) of 26.2 µM. It also gave a GI50 (BT-549 breast) of 2.7 µM, a TGI (BT-549 breast) of 7.09 µM and a GI50 (CCRF-CEM leukemia) of 2.35 µM. For the same molecule, the TGI (CCRF-CEM leukemia) was 7.34 µM, the GI50 (SNB-75 CNS) was 2.13 µM and the TGI (SNB-75 CNS) was 10.8 µM. It also gave a GI50 (SF-295 CNS) of 3.87 µM, a TGI (SF-295 CNS) of 15.1 µM and a GI50 (HOP-92 NSCLC) of 6.48 µM. It also gave a TGI (HOP-92 NSCLC) of 21.2 µM, a GI50 (SK-MEL-5 melanoma) of 11 µM and a TGI (SK-MEL-5 melanoma) of 23 µM. The GI50 (OVCAR-8 ovarian) was 1.86 µM, the TGI (OVCAR-8 ovarian) was 4.27 µM and the GI50 (K-562 leukemia) was 3.39 µM. For the same molecule, the TGI (K-562 leukemia) was 16.1 µM, the GI50 (U251 CNS) was 2.25 µM and the TGI (U251 CNS) was 6.24 µM. For the same molecule, the GI50 (786-0 renal) was 2.69 µM, the TGI (786-0 renal) was 7.51 µM and the GI50 (A549 NSCLC) was 7.04 µM. It also gave a TGI (A549 NSCLC) of 22.7 µM, a GI50 (MDA-MB-435) of 2.61 µM and a TGI (MDA-MB-435) of 9.71 µM. It also gave a GI50 (NCI/ADR-RES ovarian) of 1.98 µM, a TGI (NCI/ADR-RES ovarian) of 4.08 µM and a GI50 (HOP-62 NSCLC) of 17.3 µM. The TGI (HOP-62 NSCLC) was 31.6 µM, the GI50 (MCF7 breast) was 2.25 µM and the TGI (MCF7 breast) was 7.71 µM. For the same molecule, the GI50 (KM12 colon) was 3.92 µM, the TGI (KM12 colon) was 14.8 µM and the GI50 (OVCAR-3 ovarian) was 1.87 µM. The TGI (OVCAR-3 ovarian) was 4.08 µM, the GI50 (NCI-H23 lung) was 11 µM and the TGI (NCI-H23 lung) was 24.2 µM. For the same molecule, the GI50 (OVCAR-4 ovarian) was 4.32 µM, the TGI (OVCAR-4 ovarian) was 18.3 µM and the GI50 (HCT-15 colon) was 2.61 µM. It also gave a TGI (HCT-15 colon) of 8.15 µM, a GI50 (EKVX NSCLC) of 16.5 µM and a TGI (EKVX NSCLC) of 30.8 µM. For the same molecule, the GI50 (HS 578T breast) was 4.62 µM, the TGI (HS 578T breast) was 39.7 µM and the GI50 (SF-539 CNS) was 1.96 µM. It also gave a TGI (SF-539 CNS) of 3.81 µM.
